The numbers were not newly measured in patent US20080247985A1, “Composition base containing solubilized allantoin and urea for topical preparations” (priority 2007, published 2008), which cites them from elsewhere.

The conditions of this series: water at 25 °C.

For `NC(=O)NC1NC(=O)NC1=O` (stereo not shown) [allantoin, (2,5-dioxo-4-imidazolidinyl) urea], the Solubility in water is on record as 0.45%.
